Experimental data reported in patent US9000034B2, “Antibiotic composition containing erythorbyl laurate and its usage” (SNU R&DB Foundation, priority 2012, dated 2015).

Columns and labels:
[1] = test system: Salmonella typhimurium (ATCC 19586); experiment: Test for bacterial proliferation inhibitory effects (absorbance at 600 nm); details: 37° C., 22 hours; FIG. 5
[2] = test system: Escherichia coli O157:H7 (ATCC 35150); experiment: as above; format: cell-based; details: 37° C., 22 hours; FIG. 5
Staphylococcus aureus = experiment: as above; format: cell-based
Description: Meanwhile, as a result of examination of proliferation inhibition data of Staphylococcus aureus, a portion where an exponential phase of the bacteria starts was remarkably shown unlike Listeria monocytogenes. Thus, the concentration of erythorbyl laurate was further decreased and a growth curve of the bacteria was measured.

[3] = test system: human intestinal epithelial cells INT-407
[4] = test system: human intestinal epithelial cells INT-407; experiment: Cytotoxicity test (MTT assay, cell viability); details: FIG. 7
[5] = test system: Listeria monocytogenes (ATCC 19114); experiment: Test for apoptotic effects (viable colony count on selective media); format: cell-based
Description: (§1) Apoptotic effects of erythorbic acid, lauric acid, and erythorbyl laurate, which is a […] product of erythorbic acid and lauric acid and a material of interest in this experiment, on two kinds of Gram-negative bacteria and two kinds of Gram-positive bacteria were evaluated.
(§2) As selective media for antibiosis test, sorbitol MacConkey agar (SMAC) (available from Difco), Xylose Lysine Desoxycholate agar (XLD) (available from Difco), Oxford agar base with Bacto™ Oxford antimicrobial supplement (MOX) (available from Difco), and Baird-Parker Agar Base (BPA) (available from Difco) were used.
(§3) As bacterial strains, Escherichia coli O157:H7 (ATCC 35150), Salmonella typhimurium (ATCC 19586), Listeria monocytogenes (ATCC 19114), and Staphylococcus aureus (ATCC 27213) were prepared. Each of the bacterial strains was cultured in tryptic soy broth (Difco, Becton Dickinson, Sparks, Md., USA) for 24 hours at 37° C., centrifuged at 4000×g for 20 minutes at 4° C., and purified with buffered peptone water (BPW) (available from Difco). Each strain was prepared in the form of a bacterial suspension (10^6 CFU/ml).
(§4) For this experiment, first, 10 ml of erythorbic acid, 10 ml of lauric acid, and 10 ml of erythorbyl laurate were added to 0.1 ml of each bacterial suspension. The resulting solution was satisfactorily mixed using a vortex mixer for minutes. Thereafter, 1 ml of the resultant solution obtained by mixing each bacterial suspension and test compounds was mixed with 9 ml of sterilized peptone water. Then, the resulting mixture was diluted 1:10 using sterilized peptone water. 0.1 ml of the diluted solution was collected and plated on the selective media. The plated media were incubated at 37° C. for 24 hours, and then colonies grown in each plate were measured in log10 CFU/ml.

[6] = test system: Staphylococcus aureus (ATCC 27213); experiment: as above; format: cell-based
Description: as §1, §2, §3, §4

[7] = test system: Salmonella typhimurium (ATCC 19586); experiment: as above; format: cell-based; details: compared with erythorbic acid and lauric acid; FIG. 4
Description: as §1, §2, §3, §4

[8] = test system: Escherichia coli O157:H7 (ATCC 35150); experiment: as above; format: cell-based; details: compared with erythorbic acid and lauric acid; FIG. 4
Description: as §1, §2, §3, §4

Listeria monocytogenes = experiment: Test for bacterial proliferation inhibitory effects (absorbance at 600 nm); details: 37° C., 22 hours; FIG. 5

Row | SMILES | bacterial proliferation inhibitory effects [1] | bacterial proliferation inhibitory effects [2] | bacterial proliferation inhibitory effects (Staphylococcus aureus; 37° C., 22 hours, FIG. 5) | growth curve of the bacteria as the concentration decreased (Staphylococcus aureus; decreasing concentration of erythorbyl laurate, FIG. 6) | cytotoxicity [3] | cell viability compared with erythorbic acid ([4]; 50 μM and 200 μM) | cell viability compared with ascorbyl palmitate ([4]; all the concentrations) | apoptotic effects ([5]; FIG. 4) | viable cell count ([5]; above concentrations of 200 ppm) | apoptotic effects according to the concentration ([5]; up to 200 ppm) | apoptotic effects ([6]; FIG. 4) | apoptotic effects according to the concentration ([6]; at a concentration of 200 ppm or higher) | apoptotic effects [7] | apoptotic effects [8] | bacterial proliferation inhibitory effects (Listeria monocytogenes)
1 | O=C1O[C@H]([C@H](O)CO)C(O)=C1O [erythorbic acid] | insignificant bacterial proliferation inhibitory effects | insignificant bacterial proliferation inhibitory effects |  |  |  |  |  |  |  |  |  |  |  |  | 
2 | CCCCCCCCCCCC(=O)OC[C@@H](O)[C@H]1OC(=O)C(O)=C1O [erythorbyl laurate] | insignificant bacterial proliferation inhibitory effects | insignificant bacterial proliferation inhibitory effects | effective bacterial proliferation inhibitory effects | an induction phase decreased and the exponential phase was observed earlier | no cytotoxicity | cell viability similar to that when erythorbic acid was used | higher cell viability | excellent apoptotic effects | 0.48 CFU/ml | apoptotic effects were increased in proportion to increase in the concentration | excellent apoptotic effects | continuous apoptotic effects | insignificant | insignificant | effective bacterial proliferation inhibitory effects
3 | CCCCCCCCCCCC(=O)O [lauric acid] | insignificant bacterial proliferation inhibitory effects | insignificant bacterial proliferation inhibitory effects |  |  |  |  |  |  |  |  |  |  |  |  | 
